Assay [1] deals with MOLT-4 cells. In words: Cell viability assay, MTS, 48 h, MOLT-4. The class given is cell-based. The conditions noted are these: Homo sapiens, MOLT-4, 48 h, 48 hours, read-out: IC50 (48 hours) MOLT-4. How it is done:
(§1) Acute lymphoblastic leukemia cells (MOLT-4 and RS4; 11) or small cell lung cancer (NCI-H146 or simply H146) were incubated with increasing concentrations of Bcl-xL degraders for 48 h. Cell viability was measured by tetrazolium-based MTS assay.

Assay [2] relates to RS4;11 cells. In words: Cell viability assay, MTS, 48 h, RS4;11. To be noted: Homo sapiens, RS4-11, 48 h, 48 hours, read-out: IC50 (48 hours) RS4;11. The class given is cell-based. The procedure: as §1

Consider `Cc1ncsc1-c1ccc([C@H](C)NC(=O)[C@@H]2C[C@@H](O)CN2C(=O)[C@@H](NC(=O)CCCCCCCCCC(=O)N2CCN(CC3(C)CCC(c4ccc(Cl)cc4)=C(CN4CCN(c5ccc(C(=O)NS(=O)(=O)c6ccc(N[C@H](CCN7CCOCC7)CSc7ccccc7)c(S(=O)(=O)C(F)(F)F)c6)cc5)CC4)C3)CC2)C(C)(C)C)cc1` (stereo partly drawn) [degrader #20, (2S,4R)-1-((2S)-2-(11-(4-((4′-chloro-4-methyl-6-((4-(4-(((4-(((R)-4-morpholino-1-(phenylthio)butan-2-yl)amino)-3-((trifluoromethyl)sulfonyl)phenyl)sulfonyl)carbamoyl)phenyl)piperazin-1-yl)methyl)-2,3,4,5-tetrahydro-[1,1′-biphenyl]-4-yl)methyl)piperazin-1-yl)-11-oxoundecanamido)-3,3-dimethylbutanoyl)-4-hydroxy-N—((S)-1-(4-(4-methylthiazol-5-yl)phenyl)ethyl)pyrrolidine-2-carboxamide], for which the IC50 in assay [1] and in assay [2] was 0.15 to 0.5 µM each time.
Consider `Cc1ncsc1-c1ccc([C@H](C)NC(=O)[C@@H]2C[C@@H](O)CN2C(=O)[C@@H](NC(=O)CCCCCC(=O)N2CCCN(CC3(C)CCC(c4ccc(Cl)cc4)=C(CN4CCN(c5ccc(C(=O)NS(=O)(=O)c6ccc(N[C@H](CCN7CCOCC7)CSc7ccccc7)c(S(=O)(=O)C(F)(F)F)c6)cc5)CC4)C3)CC2)C(C)(C)C)cc1` (stereo partly drawn) [degrader #21, (2S,4R)-1-((2S)-2-(7-(4-((4′-chloro-4-methyl-6-((4-(4-(((4-(((R)-4-morpholino-1-(phenylthio)butan-2-yl)amino)-3-((trifluoromethyl)sulfonyl)phenyl)sulfonyl)carbamoyl)phenyl)piperazin-1-yl)methyl)-2,3,4,5-tetrahydro-[1,1′-biphenyl]-4-yl)methyl)-1,4-diazepan-1-yl)-7-oxoheptanamido)-3,3-dimethylbutanoyl)-4-hydroxy-N—((S)-1-(4-(4-methylthiazol-5-yl)phenyl)ethyl)pyrrolidine-2-carboxamide], for which the figures for the IC50 in assay [1] and in assay [2] were 0.05 to 0.15 µM and less than 0.05 µM, respectively.
Take `Cc1ncsc1-c1ccc([C@H](C)NC(=O)[C@@H]2C[C@@H](O)CN2C(=O)[C@@H](NC(=O)CCCCCCC(=O)N2CCC3(CCN(CC4(C)CCC(c5ccc(Cl)cc5)=C(CN5CCN(c6ccc(C(=O)NS(=O)(=O)c7ccc(N[C@H](CCN8CCOCC8)CSc8ccccc8)c(S(=O)(=O)C(F)(F)F)c7)cc6)CC5)C4)CC3)CC2)C(C)(C)C)cc1` (stereo partly drawn) [degrader #29, (2S,4R)-1-((2S)-2-(8-(9-((4′-chloro-4-methyl-6-((4-(4-(((4-(((R)-4-morpholino-1-(phenylthio)butan-2-yl)amino)-3-((trifluoromethyl)sulfonyl)phenyl)sulfonyl)carbamoyl)phenyl)piperazin-1-yl)methyl)-2,3,4,5-tetrahydro-[1,1′-biphenyl]-4-yl)methyl)-3,9-diazaspiro[5.5]undecan-3-yl)-8-oxooctanamido)-3,3-dimethylbutanoyl)-4-hydroxy-N—((S)-1-(4-(4-methylthiazol-5-yl)phenyl)ethyl)pyrrolidine-2-carboxamide]: the IC50 in assay [1] and in assay [2] was less than 0.05 µM in each case.
On to `Cc1ncsc1-c1ccc([C@H](C)NC(=O)[C@@H]2C[C@@H](O)CN2C(=O)[C@@H](NC(=O)CCCCC(=O)N2CC3(CCN(CC4(C)CCC(c5ccc(Cl)cc5)=C(CN5CCN(c6ccc(C(=O)NS(=O)(=O)c7ccc(N[C@H](CCN8CCOCC8)CSc8ccccc8)c(S(=O)(=O)C(F)(F)F)c7)cc6)CC5)C4)CC3)C2)C(C)(C)C)cc1` (stereo partly drawn) [degrader #30, (2S,4R)-1-((2S)-2-(6-(7-((4′-chloro-4-methyl-6-((4-(4-(((4-(((R)-4-morpholino-1-(phenylthio)butan-2-yl)amino)-3-((trifluoromethyl)sulfonyl)phenyl)sulfonyl)carbamoyl)phenyl)piperazin-1-yl)methyl)-2,3,4,5-tetrahydro-[1,1′-biphenyl]-4-yl)methyl)-2,7-diazaspiro[3.5]nonan-2-yl)-6-oxohexanamido)-3,3-dimethylbutanoyl)-4-hydroxy-N—((S)-1-(4-(4-methylthiazol-5-yl)phenyl)ethyl)pyrrolidine-2-carboxamide], for which the IC50 in assay [1] was 0.05 to 0.15 µM; in assay [2] it was less than 0.05 µM.
`Cc1ncsc1-c1ccc([C@H](C)NC(=O)[C@@H]2C[C@@H](O)CN2C(=O)[C@@H](NC(=O)CCCCCC(=O)N2CC3(CCN(CC4(C)CCC(c5ccc(Cl)cc5)=C(CN5CCN(c6ccc(C(=O)NS(=O)(=O)c7ccc(N[C@H](CCN8CCOCC8)CSc8ccccc8)c(S(=O)(=O)C(F)(F)F)c7)cc6)CC5)C4)CC3)C2)C(C)(C)C)cc1` (stereo partly drawn) [degrader #31, (2S,4R)-1-((2S)-2-(7-(7-((4′-chloro-4-methyl-6-((4-(4-(((4-(((R)-4-morpholino-1-(phenylthio)butan-2-yl)amino)-3-((trifluoromethyl)sulfonyl)phenyl)sulfonyl)carbamoyl)phenyl)piperazin-1-yl)methyl)-2,3,4,5-tetrahydro-[1,1′-biphenyl]-4-yl)methyl)-2,7-diazaspiro[3.5]nonan-2-yl)-7-oxoheptanamido)-3,3-dimethylbutanoyl)-4-hydroxy-N—((S)-1-(4-(4-methylthiazol-5-yl)phenyl)ethyl)pyrrolidine-2-carboxamide]: the IC50 in assay [1] is 0.05 to 0.15 µM; in assay [2], less than 0.05 µM.
As for `Cc1ncsc1-c1ccc([C@H](C)NC(=O)[C@@H]2C[C@@H](O)CN2C(=O)[C@@H](NC(=O)CCCCCCC(=O)N2CC3(CCN(CC4(C)CCC(c5ccc(Cl)cc5)=C(CN5CCN(c6ccc(C(=O)NS(=O)(=O)c7ccc(N[C@H](CCN8CCOCC8)CSc8ccccc8)c(S(=O)(=O)C(F)(F)F)c7)cc6)CC5)C4)CC3)C2)C(C)(C)C)cc1` (stereo partly drawn) [degrader #32, (2S,4R)-1-((2S)-2-(8-(7-((4′-chloro-4-methyl-6-((4-(4-(((4-(((R)-4-morpholino-1-(phenylthio)butan-2-yl)amino)-3-((trifluoromethyl)sulfonyl)phenyl)sulfonyl)carbamoyl)phenyl)piperazin-1-yl)methyl)-2,3,4,5-tetrahydro-[1,1′-biphenyl]-4-yl)methyl)-2,7-diazaspiro[3.5]nonan-2-yl)-8-oxooctanamido)-3,3-dimethylbutanoyl)-4-hydroxy-N—((S)-1-(4-(4-methylthiazol-5-yl)phenyl)ethyl)pyrrolidine-2-carboxamide], the figures for the IC50 in assay [1] and in assay [2] were 0.05 to 0.15 µM and less than 0.05 µM, respectively.
Turning to `Cc1ncsc1-c1ccc([C@H](C)NC(=O)[C@@H]2C[C@@H](O)CN2C(=O)[C@@H](NC(=O)CCCCCC(=O)NC2CCN(CC3(C)CCC(c4ccc(Cl)cc4)=C(CN4CCN(c5ccc(C(=O)NS(=O)(=O)c6ccc(N[C@H](CCN7CCOCC7)CSc7ccccc7)c(S(=O)(=O)C(F)(F)F)c6)cc5)CC4)C3)CC2)C(C)(C)C)cc1` (stereo partly drawn) [degrader #37, N1-(1-((4′-chloro-4-methyl-6-((4-(4-(((4-(((R)-4-morpholino-1-(phenylthio)butan-2-yl)amino)-3-((trifluoromethyl)sulfonyl)phenyl)sulfonyl)carbamoyl)phenyl)piperazin-1-yl)methyl)-2,3,4,5-tetrahydro-[1,1′-biphenyl]-4-yl)methyl)piperidin-4-yl)-N7-((S)-1-((2S,4R)-4-hydroxy-2-(((S)-1-(4-(4-methylthiazol-5-yl)phenyl)ethyl)carbamoyl)pyrrolidin-1-yl)-3,3-dimethyl-1-oxobutan-2-yl)heptanediamide], the IC50 in assay [1] is 0.15 to 0.5 µM; in assay [2], less than 0.05 µM.

What is called IC50 is the point on the concentration scale where inhibition reaches its midpoint.

The values are drawn from patent publication US20220169628A1 (University of Florida Research Foundation, Incorporated, priority 2019, published 2022).
